Data as given in ChEMBL document CHEMBL1140793, “Amino acid derivatives as histone deacetylase inhibitors” (2008).

Experiments:
[1] = target: Histone deacetylase 1 (Homo sapiens) (UniProt Q13547); assay: Inhibition of HDAC1
HCT-116 = assay: Growth inhibition of human HCT116 cells after 72 hrs; format: functional

Histone deacetylase 1 (Homo sapiens), sequence (Q13547 whole entry): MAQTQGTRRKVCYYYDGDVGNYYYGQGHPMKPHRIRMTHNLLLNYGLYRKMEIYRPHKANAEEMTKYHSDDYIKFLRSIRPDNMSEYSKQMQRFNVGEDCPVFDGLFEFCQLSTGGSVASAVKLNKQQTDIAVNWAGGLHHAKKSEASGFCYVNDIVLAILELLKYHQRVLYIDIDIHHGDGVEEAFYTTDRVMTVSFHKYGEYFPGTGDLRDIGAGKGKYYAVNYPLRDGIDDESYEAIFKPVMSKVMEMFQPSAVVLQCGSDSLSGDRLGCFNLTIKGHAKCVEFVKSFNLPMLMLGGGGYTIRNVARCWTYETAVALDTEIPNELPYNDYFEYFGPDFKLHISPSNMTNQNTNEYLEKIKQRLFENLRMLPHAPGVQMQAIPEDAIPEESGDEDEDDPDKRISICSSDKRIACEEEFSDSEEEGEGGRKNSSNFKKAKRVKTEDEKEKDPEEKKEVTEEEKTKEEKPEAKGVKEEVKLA

| Compound | Inflection point [1] | Inflection point (HCT-116) |
| --- | --- | --- |
| CN(C)CCNC(C(=O)NCc1ccccc1)c1ccc2cc(C(=O)Nc3ccccc3N)sc2c1 (stereo not drawn) | 150 nM | – |
| CN1CCN(C(C(=O)Nc2ccc3ccccc3c2)c2ccc(C(=O)Nc3ccccc3N)cc2)CC1 (stereo not drawn) | 360 nM | 640 nM |
| CN1CCN(C(C(=O)NCc2ccccc2)c2ccc(C(=O)Nc3ccccc3N)cc2)CC1 (stereo not drawn) | 860 nM | – |
| CN1CCN(C(C(=O)Nc2ccc(Cl)cc2)c2ccc3cc(C(=O)Nc4ccccc4N)sc3c2)CC1 (stereo not drawn) | 62 nM | 340 nM |
| Cc1ccc(NC(=O)C(NC(=O)CCc2ccccc2)c2ccc(C(=O)Nc3ccccc3N)cc2)cc1 (stereo not drawn) | 340 nM | 3000 nM |
| COc1ccc(CNC(C(=O)Nc2ccc(OC)cc2)c2ccc3cc(C(=O)Nc4ccccc4N)sc3c2)cc1 (stereo not drawn) | 90 nM | – |
| Nc1ccccc1NC(=O)c1cc2ccc(C(NCCc3ccccc3)C(=O)NCCN3CCOCC3)cc2s1 (stereo not drawn) | 230 nM | – |
| CN1CCN(C(C(=O)NCc2ccccc2)c2ccc3cc(C(=O)Nc4ccccc4N)sc3c2)CC1 (stereo not drawn) | 110 nM | 430 nM |
| Nc1ccccc1NC(=O)c1cc2ccc(C(C(=O)NCc3ccccc3)N3CCN(C/C=C/c4ccccc4)CC3)cc2s1 (stereo not drawn) | 230 nM | – |
| COc1ccc(NC(=O)C(NC2CCCCC2)c2ccc3cc(C(=O)Nc4ccccc4N)sc3c2)cc1 (stereo not drawn) | 74 nM | – |
| Cc1ccc(NC(=O)C(c2ccc3cc(C(=O)Nc4ccccc4N)sc3c2)N2CCN(C)CC2)cc1 (racemic) [listing 1 of 2 here] | 25 nM | – |
| Cc1ccc(NC(=O)C(c2ccc3cc(C(=O)Nc4ccccc4N)sc3c2)N2CCN(C)CC2)cc1 (single isomer, unassigned; enantiomer 2) [listing 1 of 2 here] | – | 560 nM |
| Cc1ccc(NC(=O)C(c2ccc3cc(C(=O)Nc4ccccc4N)sc3c2)N2CCN(C)CC2)cc1 (racemic) [listing 2 of 2 here] | – | 240 nM |
| Cc1ccc(NC(=O)C(c2ccc3cc(C(=O)Nc4ccccc4N)sc3c2)N2CCN(C)CC2)cc1 (single isomer, unassigned; enantiomer 1) [listing 1 of 2 here] | – | 130 nM |
| Nc1ccccc1NC(=O)c1cc2ccc(C(NCCc3ccncc3)C(=O)NCc3ccccc3)cc2s1 (stereo not drawn) | 39 nM | – |
| COc1ccc(NC(=O)C(NCCc2ccccc2)c2ccc3cc(C(=O)Nc4ccccc4N)sc3c2)cc1 (stereo not drawn) | 71 nM | – |
| COc1ccc(NC(=O)C(c2ccc3cc(C(=O)Nc4ccccc4N)sc3c2)N2CCN(C)CC2)cc1 (stereo not drawn) | 43 nM | 410 nM |
| CC(C)(C)OC(=O)N1CCN(C(C(=O)NCc2ccccc2)c2ccc3cc(C(=O)Nc4ccccc4N)sc3c2)CC1 (stereo not drawn) | 260 nM | – |
| CN1CCN(C(C(=O)Nc2ccc(Cl)cc2)c2ccc(C(=O)Nc3ccccc3N)cc2)CC1 (stereo not drawn) | 6200 nM | – |
| Nc1ccccc1NC(=O)c1cc2ccc(C(NCCc3ccccn3)C(=O)NCc3ccccc3)cc2s1 (stereo not drawn) | 110 nM | – |
| COc1ccc(NC(=O)C(NC(=O)CCc2ccccc2)c2ccc(C(=O)Nc3ccccc3N)cc2)cc1 (stereo not drawn) | 260 nM | 2800 nM |
| Nc1ccccc1NC(=O)c1cc2ccc(C(NCCO)C(=O)NCc3ccccc3)cc2s1 (stereo not drawn) | 150 nM | – |

| Compound | Inflection point [1] | Inflection point (HCT-116) |
| --- | --- | --- |
| COc1ccc(NC(=O)C(NCCc2ccncc2)c2ccc3cc(C(=O)Nc4ccccc4N)sc3c2)cc1 (stereo not drawn) | 32 nM | – |
| CN1CCN(C(C(=O)Nc2ccc3ccccc3c2)c2ccc3cc(C(=O)Nc4ccccc4N)sc3c2)CC1 (stereo not drawn) | 25 nM | 580 nM |
| COc1ccc(NC(=O)C(NCc2ccccc2)c2ccc3cc(C(=O)NO)sc3c2)cc1 (stereo not drawn) | 4 nM | – |
| Nc1ccccc1NC(=O)c1ccc(C(C(=O)Nc2ccc3ccccc3c2)N2CCN(c3ccccc3)CC2)cc1 (stereo not drawn) | 620 nM | – |
| COCCNC(C(=O)NCc1ccccc1)c1ccc2cc(C(=O)Nc3ccccc3N)sc2c1 (stereo not drawn) | 170 nM | – |
| COc1ccc(NC(=O)C(NC(=O)Cc2ccccc2)c2ccc(C(=O)Nc3ccccc3N)cc2)cc1 (stereo not drawn) | 870 nM | 6400 nM |
| CN1CCN(C(Cc2ccc(C(=O)Nc3ccccc3N)cc2)C(=O)Nc2ccc(Cl)cc2)CC1 (stereo not drawn) | 310 nM | 370 nM |
| Nc1ccccc1NC(=O)c1ccc(C(C(=O)Nc2ccc3ccccc3c2)N2CCN(CCc3ccccc3)CC2)cc1 (stereo not drawn) | 680 nM | – |
| Cc1ccc(NC(=O)C(c2ccc3cc(C(=O)Nc4ccccc4N)sc3c2)N2CCN(C)CC2)cc1 (single isomer, unassigned; enantiomer 2) [listing 2 of 2 here] | 18 nM | – |
| Nc1ccccc1NC(=O)c1cc2ccc(C(NCCc3ncc[nH]3)C(=O)NCc3ccccc3)cc2s1 (stereo not drawn) | 520 nM | – |
| Nc1ccccc1NC(=O)c1cc2ccc(C(C(=O)NCc3ccccc3)N3CCN(c4ccccc4)CC3)cc2s1 (stereo not drawn) | 150 nM | – |
| Nc1ccccc1NC(=O)c1cc2ccc(C(NCCc3ccccc3)C(=O)NCc3ccccc3)cc2s1 (stereo not drawn) | 70 nM | – |
| CN1CCN(C(Cc2ccc(C(=O)Nc3ccccc3N)cc2)C(=O)Nc2ccc3ccccc3c2)CC1 (stereo not drawn) | 37 nM | 220 nM |
| Nc1ccccc1NC(=O)c1ccc(C(NC(=O)CCc2ccccc2)C(=O)Nc2ccc3ccccc3c2)cc1 (stereo not drawn) | 250 nM | 2700 nM |
| Nc1ccccc1NC(=O)c1cc2ccc(C(C(=O)NCc3ccccc3)N3CCN(CCc4ccccc4)CC3)cc2s1 (stereo not drawn) | 180 nM | – |
| COc1ccc(NC(=O)C(NCc2ccccc2)c2ccc3cc(C(=O)Nc4ccccc4N)sc3c2)cc1 (stereo not drawn) | 79 nM | – |
| Cc1ccc(NC(=O)C(c2ccc3cc(C(=O)Nc4ccccc4N)sc3c2)N2CCN(C)CC2)cc1 (single isomer, unassigned; enantiomer 1) [listing 2 of 2 here] | 21 nM | – |
| CCN1CCN(C(C(=O)NCc2ccccc2)c2ccc3cc(C(=O)Nc4ccccc4N)sc3c2)CC1 (stereo not drawn) | 80 nM | 490 nM |
| Nc1ccccc1NC(=O)c1ccc(C(NC(=O)Cc2ccccc2)C(=O)Nc2ccc3ccccc3c2)cc1 (stereo not drawn) | 170 nM | 2700 nM |
| Nc1ccccc1NC(=O)c1cc2ccc(C(NCc3cccnc3)C(=O)NCc3ccccc3)cc2s1 (stereo not drawn) | 180 nM | – |
| Cc1ccc(NC(=O)C(NC(=O)Cc2ccccc2)c2ccc(C(=O)Nc3ccccc3N)cc2)cc1 (stereo not drawn) | 690 nM | 8100 nM |
| Nc1ccccc1NC(=O)c1cc2ccc(C(C(=O)NCc3ccccc3)N3CCN(C(=O)OCc4ccccc4)CC3)cc2s1 (stereo not drawn) | 470 nM | – |
